Assay [1] has as its system MDA-MB-231. The experiment in a line: Cytotoxicity against human MDA-MB-231 cells after 48 hrs by MTT assay. The format is functional, cell-based. As to conditions: MDA-MB-231, 48 h.
Assay [2] has as its system A549. Nature of the assay: Cell cycle arrest in human A549 cells assessed as accumulation at G1 phase at 2 uM after 24 hrs using propidium iodide staining by flow cytometer analysis (reference value: 80.03%). Format: functional. A general note: In flow cytometry, cells or beads pass a laser one at a time.
For assay [3], the system named is A549. Nature of the assay: Cell cycle arrest in human A549 cells assessed as accumulation at G0 phase at 2 uM after 24 hrs using propidium iodide staining by flow cytometer analysis (reference value: 0.56%). The format is functional.
In assay [4] the test system is A549. The experiment in a line: Cytotoxicity against human A549 cells after 48 hrs by MTT assay. Format: functional, cell-based. As to conditions: A549, 48 h. On the technique in general: Formazan colour is commonly taken as a measure of viable cells.
Assay [5] has as its system A549. The experiment in a line: Cell cycle arrest in human A549 cells assessed as accumulation at G2/M phase at 2 uM after 24 hrs using propidium iodide staining by flow cytometer analysis (reference value: 13.98%). The format is functional.
In assay [6] the test system is A549. The experiment in a line: Cell cycle arrest in human A549 cells assessed as accumulation at S phase at 2 uM after 24 hrs using propidium iodide staining by flow cytometer analysis (reference value: 5.43%). Format: functional.
Assay [7] concerns the target T1, Tubulin (Homo sapiens) (UniProt P68371+Q9H4B7+P0DPH7+P68366+Q13509+Q71U36+P04350+Q3ZCM7+P07437+P68363+Q9BQE3+Q6PEY2+Q13885+Q9BVA1+Q9BUF5). The experiment in a line: Inhibition of tubulin polymerization in human A549 cells assessed as microtubule network at 2 uM after 24 hrs by immunofluorescence microscopy analysis. The format is cell-based.
Assay [8] has as its system A549. The experiment in a line: Induction of apoptosis in human A549 cells assessed as increase of caspase-3 expression at 2 uM after 2 hrs by Western blot analysis. Format: functional, cell-based.
Assay [9] concerns the target T1, Tubulin (Homo sapiens). The experiment in a line: Inhibition of gamma-tubulin in human A549 cells assessed as decrease in protein organization pattern at 2 uM after 24 hrs by immunofluorescence analysis. Format: cell-based.
Assay [10] has as its target T1, Tubulin (Homo sapiens). Nature of the assay: Inhibition of tubulin (unknown origin) at 2 uM after 30 to 60 mins by HTS assay. The format is protein-complex assay.
In assay [11] the target is Tubulin (Bos taurus) (UniProt Q6B856+Q862L2+Q862F3). The experiment in a line: Displacement of [3H]-colchicine from purified bovine brain tubulin at 5 uM after 1 hr by scintillation proximity assay. For orientation: In a radioligand displacement assay an active substance lowers the binding of a labelled ligand.

Calls of active or inactive are those of the source. No cut-off for these calls is given here.

By IC50 is commonly meant the concentration at which inhibition is half-maximal. Read a high IC50 as a need for much substance. On to `COc1ccc(/C=C\c2cc(OC)c(OC)c(OC)c2)cc1O` [COMBRETASTATIN A4], for which the IC50 in [1] was 0.1 µM; in assay [4], 0.55 µM. Besides, the Activity amounted to 7.47% in assay [2], 1.79% in assay [3], 84.71% in assay [5] and 6.03% in [6].

As usually defined, the inhibition is the share of the control response that was lost under treatment. In the case of `COc1ccc(F)c(C2=NOC(COc3ccc(-c4nnnn4-c4cc(OC)c(OC)c(OC)c4)cc3N)C2)c1` (stereo unspecified), the IC50 in assay [1] was determined as 2.83 µM; in [4] it was 1.51 µM. In addition, the Activity in [2] worked out at 10.23%; in [3] it was 2.55%; in assay [5] it was 81.29%; in assay [6], 5.93%. The inhibition entry in assay [7], in assay [9] and in assay [10] was “Active” in each case. Further, in assay [8], the result was Active. This compound also came in with an inhibition in assay [11] of 90%.

For the compound `COc1ccc(C2=NOC(COc3ccc(-c4nnnn4-c4cc(OC)c(OC)c(OC)c4)cc3N)C2)cc1OC` (stereo unspecified), the results for the IC50 in assay [1] and in assay [4] were 3.57 µM and 2.52 µM, respectively. Further, the Activity in [2] is 73.08%; in [3] it was 1.44%; in [5] it was 20.18%; in [6], 5.31%.

For `COc1cc(-n2nnnc2-c2ccc(OCC3CC(c4ccc(C(F)(F)F)cc4)=NO3)c(N)c2)cc(OC)c1OC` (stereo unspecified), the IC50 in assay [1] was 1.75 µM; in assay [4], 1.22 µM. The Activity is 43.08% in assay [2], 7.14% in assay [3], 45.61% in [5] and 4.17% in assay [6].

Turning to `COc1ccc(C2=NOC(COc3ccc(-c4nnnn4-c4cc(OC)c(OC)c(OC)c4)cc3N)C2)cc1[N+](=O)[O-]` (stereo unspecified), the IC50 worked out at 3.56 µM in assay [1] and 2.22 µM in [4]. Further, the Activity in assay [2] turned out to be 74.79%; in assay [3], 1.84%; in [5], 18.08%; in [6], 5.29%.

With `CC(=O)O[C@H]1C(=O)[C@@]2(C)[C@H]([C@H](OC(=O)c3ccccc3)[C@]3(O)C[C@H](OC(=O)[C@H](O)[C@@H](NC(=O)c4ccccc4)c4ccccc4)C(C)=C1C3(C)C)[C@]1(OC(C)=O)CO[C@@H]1C[C@@H]2O`, the inhibition in assay [11] amounted to 20%.

On to `COc1ccc(OC)c(C2=NOC(COc3ccc(-c4nnnn4-c4cc(OC)c(OC)c(OC)c4)cc3N)C2)c1` (stereo unspecified), for which the IC50 turned out to be 3.5 µM in [1] and 1.93 µM in assay [4]. Also, the Activity in assay [2] is given as 75.39%; in assay [3], 0.95%; in assay [5], 18.63%; in assay [6] it was 5.02%.

Consider `COc1cc(-n2nnnc2-c2ccc(OCC3CC(c4ccc(OC)c(OC)c4OC)=NO3)c(N)c2)cc(OC)c1OC` (stereo unspecified), for which the IC50 turned out to be 3.54 µM in [1] and 2.03 µM in assay [4]. For the same compound, the Activity in assay [2] worked out at 73.18%; in assay [3], 1.08%; in assay [5] it was 20.34%; in assay [6] it was 5.4%.

Regarding `COc1ccc(C2=NOC(COc3ccc(-c4nnnn4-c4cc(OC)c(OC)c(OC)c4)cc3N)C2)cc1O` (stereo unspecified), the IC50 in assay [1] worked out at 3.38 µM; in [4], 2.13 µM. For the same compound, the Activity in assay [2] worked out at 69.87%; in [3] it was 2.05%; in assay [5] it was 21.81%; in assay [6], 6.27%.

In the case of `COc1cc(C2=NOC(COc3ccc(-c4nnnn4-c4cc(OC)c(OC)c(OC)c4)cc3N)C2)cc(OC)c1OC` (stereo unspecified), the IC50 in assay [1] was 3.23 µM; in [4] it was 2.06 µM. Further, the Activity in assay [2] was 72.62%; in assay [3], 1.74%; in assay [5], 20.72%; in assay [6], 4.92%.

Consider `COc1cc(-n2nnnc2-c2ccc(OCC3CC(c4cccc(Cl)c4)=NO3)c(N)c2)cc(OC)c1OC` (stereo unspecified), for which the concentration for half-maximal inhibition (IC50) stood at 2.18 µM in assay [1] and 1.34 µM in assay [4]. For the same compound, the Activity in assay [2] was 49.34%; in assay [3] it was 6.83%; in assay [5] it was 38.3%; in assay [6], 5.53%.

Regarding `COc1cc(C2=NOC(COc3ccc(-c4nnnn4-c4cc(OC)c(OC)c(OC)c4)cc3N)C2)ccc1O` (stereo unspecified), the figures for the IC50 in assay [1] and in [4] were 3.62 µM and 2.01 µM, respectively. Besides, the Activity in assay [2] is on record as 70.71%; in assay [3], 1.65%; in [5], 21.18%; in assay [6] it was 6.41%.

With `COc1ccc(C2=NOC(COc3ccc(-c4nnnn4-c4cc(OC)c(OC)c(OC)c4)cc3N)C2)cc1N` (stereo unspecified), the half-inhibitory concentration (IC50) came out at 3 µM in assay [1] and 2.08 µM in assay [4]. In addition, the Activity in assay [2] is given as 75.87%; in assay [3], 1.68%; in assay [5] it was 17.03%; in assay [6], 5.42%.

Consider `COc1cc(-n2nnnc2-c2ccc(OCC3CC(c4ccccc4F)=NO3)c(N)c2)cc(OC)c1OC` (stereo unspecified), for which the IC50 amounted to 2.4 µM in [1] and 1.49 µM in [4]. In addition, the Activity is on record as 11.34% in assay [2], 3.19% in assay [3], 79.42% in [5] and 6.04% in assay [6]. The inhibition result in [7], in assay [9] and in assay [10] was “Active” in each case. Further, the result in assay [8] was Active. In addition, in [11], the inhibition is 92%.

Take `COc1cc(C2=NOC(c3cc(OC)c(OC)c(OC)c3)C2)ccc1O` (stereo unspecified): the IC50 was found to be 3.6 µM in [1] and 2.6 µM in [4]. Moreover, the Activity was 65.98% in assay [2], 1.42% in [3], 27.86% in [5] and 4.25% in [6].

As to `COc1ccc(-c2nnnn2-c2cc(OC)c(OC)c(OC)c2)cc1N`, the results for the IC50 in assay [1] and in assay [4] were 3.17 µM and 2.63 µM, respectively. For the same compound, the Activity is 72.31% in [2], 1.05% in assay [3], 23.1% in assay [5] and 3.47% in assay [6].

Values taken from ChEMBL document CHEMBL3217461, “Synthesis of tetrazoleisoxazoline hybrids as a new class of tubulin polymerization inhibitors” (Medchemcomm, 2012).
